Experiments:
[1] = system: NK cells; test: Multiplex cytokine and chemokine array of NK cell supernatants; format: cell-based, human; details: activated NK cells
Experimental: The analysis reported supra was extended to an analysis of the supernatants produced during the various cell culture experiments. A multiplex array system for chemokines and cytokines were used, as was a standard ELISA for measuring IFN-γ. Bead arrays were used to quantify each of IFN-γ, IL-1 IL-6, IL-8, IL-10, TNF-α, GM-CSF, IP-10, MCP-1, MIP-1α, and 1β. Levels of production were measured using standard methodologies.

[2] = system: Human NK cells; test: Intracellular cytokine staining of IFN-γ in NK cells; format: cell-based; details: 16 hours, BFA 1 μg/ml
Experimental: In these experiments 1×10^5 highly purified human NK cells were cultured as above, but were cultured with Poly I:C (10 μg/ml), or LPS (100 ng/ml), with or without 10, 50, or 100 ng/ml of recombinant human activin-A. In some cases, the known compound “SB431542,” which blocks activin-A binding to receptors was added. IFN-γ was then measured via ELISA, or by intracellular cytokine staining after 16 hours of culture, via addition of 1 μg/ml BFA, to prevent cytokine release.
In additional follow up experiments, the NK cells were stimulated with IL-2 or the combination of IL-2 and IL-12, plus poly I:C or LPS, for 16 hours, in the presence of 1 μg/ml of BFA, before a standard ICS assay was carried out via flow cytometry.

[3] = system: NK cells; test: Flow cytometry of CD25 and CD56 on NK cells; format: cell-based, human
Experimental: As above, 1×10^5 purified NK cells were cultured in 96 well-plates in media that had been supplemented with IL-2 and IL-12, either with or without the addition of TLR ligands, in the presence of activin-A (100 ng/ml).
After 24 hours, […] were collected, and stained with anti-CD25 antibodies, with expression being determined by flow cytometry.

activin-A
GM-CSF production [1]: suppressed
IFN-γ production (bead array) [1]: suppressive effect
IL-1β production [1]: suppressed
IL-6 production [1]: suppressed
IL-8 production [1]: suppressing
IL-10 production [1]: increased the low amounts of IL-10 that had been produced, significantly
IP-10 production [1]: suppressing
MIP-1α production [1]: suppressing
MIP-1β production [1]: suppressing
TNF-α production [1]: suppressed
number of IFN-γ producing cells [2]: not due to a decrease in the number of IFN-γ producing cells
number of IFN-γ producing cells ([2]; listed as Activin-A): did not effect these populations
downregulation of CD56 ([3]; Example 16): suppressed
upregulation of CD25 ([3]; Example 16): suppressed
CD25 expression ([3]; IL-2 and IL-12 with or without TLR ligands, activin-A 100 ng/ml, 24 hours): significantly suppressed
